Measured values as given in patent US9051307B2, “Bipyridyl derivatives” (Merck Patent GmbH, priority 2010, dated 2015).

Biological target: T1, GST-ALK5 (Homo sapiens, UniProt P36897)
T1 sequence (P36897 34-503): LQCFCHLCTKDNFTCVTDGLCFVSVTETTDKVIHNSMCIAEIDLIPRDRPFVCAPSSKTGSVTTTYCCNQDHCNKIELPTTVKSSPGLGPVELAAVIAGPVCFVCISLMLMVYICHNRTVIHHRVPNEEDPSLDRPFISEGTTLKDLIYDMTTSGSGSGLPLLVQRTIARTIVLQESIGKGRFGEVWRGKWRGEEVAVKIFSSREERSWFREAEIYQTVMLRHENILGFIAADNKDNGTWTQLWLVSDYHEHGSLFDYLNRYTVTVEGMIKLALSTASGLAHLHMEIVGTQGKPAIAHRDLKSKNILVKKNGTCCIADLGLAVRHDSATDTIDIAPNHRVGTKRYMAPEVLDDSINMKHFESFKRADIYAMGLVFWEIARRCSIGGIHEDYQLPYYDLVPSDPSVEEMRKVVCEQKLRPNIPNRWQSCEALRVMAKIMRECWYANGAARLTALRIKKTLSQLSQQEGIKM
Experiment: In-vitro (enzyme) kinase assay, 384-well flashplate, GST-ALK5 with GST-SMAD2 and 33P-ATP (Example 16)
Assay type: biochemical
Details: 31.2 nM GST-ALK5, 439 nM GST-SMAD2, 3 mM ATP, 30° C., 45 min; IC50 classes; read-out: TβR activity (Example 16)
Experimental: In-vitro (Enzyme) Assay for Determination of the Efficacy of Inhibitors of the Inhibition of TGF-Beta-mediated Effects
The kinase assay was carried out as 384-well flashplate assay. 31.2 nM of GST-ALK5, 439 nM of GST-SMAD2 and 3 mM of ATP (with 0.3 μCi of ^33P-ATP/well) were incubated in a total volume of 35 μl (20 mM of HEPES, 10 mM of MgCl2, 5 mM of MnCl2, 1 mM of DTT, 0.1% of BSA, pH 7.4) without or with test substance (5-10 concentrations) at 30° C. for 45 min. The reaction was stopped using 25 μl of 200 mM EDTA solution, filtered with suction at room temperature after 30 min, and the wells were washed with 3 times 100 μl of 0.9% NaCl solution. Radioactivity was measured in the TopCount. The IC50 values were calculated using RS1.

| IC50 [nM] | SMILES |
| --- | --- |
| < 1000 | OCCn1cc(-c2cncc(-c3ccnc(-c4ccccc4F)c3)n2)cn1 [Compound 20, 2-(4-{6-[2-(2-Fluoro-phenyl)-pyridin-4-yl]-pyrazin-2-yl}-pyrazol-1-yl)-ethanol] |
| < 1000 | Fc1ccccc1-c1cc(-c2cncc(-n3cccn3)c2)ccn1 [Compound 41, 2′-(2-Fluoro-phenyl)-5-pyrazol-1-yl-[3,4′]bipyridinyl] |
| < 1000 | OCCn1cc(-c2cncc(-c3ccnc(-c4cc(C(F)(F)F)ccc4F)c3)c2)cn1 [Compound 31, 2-{4-[2′-(2-Fluoro-5-trifluoromethyl-phenyl)-[3,4′]bipyridinyl-5-yl]-pyrazol-1-yl}-ethanol] |
| < 1000 | Fc1ccccc1-c1cc(-c2cncc(-c3cnn(C4CCNCC4)c3)c2)ccn1 [Compound 27, 2′-(2-Fluoro-phenyl)-5-(1-piperidin-4-yl-1H-pyrazol-4-yl)-[3,4′]bipyridinyl] |
| 1000 to 10000 | Fc1ccccc1-c1cc(-c2cncc(-c3cnc4[nH]c(C(F)(F)F)cc4c3)c2)ccn1 [Compound 42, 2′-(2-Fluoro-phenyl)-5-(2-trifluoromethyl-1H-pyrrolo[2,3-b]pyridin-5-yl)-[3,4′]bipyridinyl] |
| < 1000 | OCCn1cc(-c2cncc(-c3ccnc(-c4ccccc4F)c3)c2)cn1 [Compound 33, 2-{4-[2′-(2-Fluoro-phenyl)-[3,4′]bipyridinyl-5-yl]-pyrazol-1-yl}-ethanol] |
| < 1000 | OCCCn1cc(-c2cncc(-c3ccnc(-c4ccccc4F)c3)c2)cn1 [Compound 22, 3-{4-[2′-(2-Fluoro-phenyl)-[3,4′]bipyridinyl-5-yl]-pyrazol-1-yl}-propan-1-ol] |
| 1000 to 10000 | CCOCc1cnc(C)nc1Nc1cncc(-c2ccnc(-c3ccccc3F)c2)c1 [Compound 45, (5-Ethoxymethyl-2-methyl-pyrimidin-4-yl)-[2′-(2-fluoro-phenyl)-[3,4′]bipyridinyl-5-yl]-amine] |
| < 1000 | OCCn1cc(-c2cncc(-c3ccnc(-c4cc(Cl)ccc4F)c3)c2)cn1 [Compound 34, 2-{4-[2′-(5-Chloro-2-fluoro-phenyl)-[3,4′]bipyridinyl-5-yl]-pyrazol-1-yl}-ethanol] |
| < 1000 | CN(C)CCCn1cc(-c2cncc(-c3ccnc(-c4cc(F)ccc4F)c3)c2)cn1 [Compound 28, (3-{4-[2′-(2,5-Difluoro-phenyl)-[3,4′]bipyridinyl-5-yl]-pyrazol-1-yl}-propyl)-dimethyl-amine] |
| < 1000 | Fc1ccccc1-c1cc(-c2cncc(-c3cnn(CCCN4CCOCC4)c3)c2)ccn1 [Compound 21, 2′-(2-Fluoro-phenyl)-5-[1-(3-morpholin-4-yl-propyl)-1H-pyrazol-4-yl]-[3,4′]bipyridinyl] |
| 1000 to 10000 | CCOc1cc(Nc2cncc(-c3ccnc(-c4ccccc4F)c3)c2)ccn1 [Compound 43, (2-Ethoxy-pyridin-4-yl)-[2′-(2-fluoro-phenyl)-[3,4′]bipyridinyl-5-yl]-amine] |
| < 1000 | CN1CCN(c2ccc(-c3cncc(-c4ccnc(-c5ccccc5F)c4)c3)cn2)CC1 [Compound 25, 2″-(2-Fluoro-phenyl)-6-(4-methyl-piperazin-1-yl)-[3,3′;5′,4″]terpyridine] |
| 1000 to 10000 | COc1ccc(Nc2cncc(-c3ccnc(-c4ccccc4F)c3)c2)cn1 [Compound 44, [2′-(2-Fluoro-phenyl)-[3,4′]bipyridinyl-5-yl]-(6-methoxy-pyridin-3-yl)-amine] |
| < 1000 | CN1CCC(n2cc(-c3cncc(-c4ccnc(-c5cc(Cl)ccc5F)c4)c3)cn2)CC1 [Compound 37, 2′-(5-Chloro-2-fluoro-phenyl)-5-[1-(1-methyl-piperidin-4-yl)-1H-pyrazol-4-yl]-[3,4′]bipyridinyl] |
| < 1000 | OCCn1cc(-c2cncc(-c3ccnc(-c4cc(F)ccc4F)c3)c2)cn1 [Compound 32, 2-{4-[2′-(2,5-Difluoro-phenyl)-[3,4′]bipyridinyl-5-yl]-pyrazol-1-yl}-ethanol] |
| < 1000 | CN1CCC(n2cc(-c3cncc(-c4ccnc(-c5cc(F)ccc5F)c4)c3)cn2)CC1 [Compound 35, 2′-(2,5-Difluoro-phenyl)-5-[1-(1-methyl-piperidin-4-yl)-1H-pyrazol-4-yl]-[3,4′]bipyridinyl] |
| < 1000 | CN1CCC(n2cc(-c3cncc(-c4ccnc(-c5cc(C(F)(F)F)ccc5F)c4)c3)cn2)CC1 [Compound 36, 2′-(2-Fluoro-5-trifluoromethyl-phenyl)-5-[1-(1-methyl-piperidin-4-yl)-1H-pyrazol-4-yl]-[3,4′]bipyridinyl] |
| < 1000 | Fc1ccccc1-c1cc(-c2cncc(-c3ccc(N4CCNCC4)nc3)c2)ccn1 [Compound 26, 2″-(2-Fluoro-phenyl)-6-piperazin-1-yl-[3,3′;5′,4″]terpyridine] |
| < 1000 | Fc1ccc(Cl)cc1-c1cc(-c2cncc(-c3cnn(C4CCNCC4)c3)c2)ccn1 [Compound 18, 2′-(5-Chloro-2-fluoro-phenyl)-5-(1-piperidin-4-yl-1H-pyrazol-4-yl)-[3,4′]bipyridinyl] |
| < 1000 | CN(C)CCCn1cc(-c2cncc(-c3ccnc(-c4cc(Cl)ccc4F)c3)c2)cn1 [Compound 30, (3-{4-[2′-(5-Chloro-2-fluoro-phenyl)-[3,4′]bipyridinyl-5-yl]-pyrazol-1-yl}-propyl)-dimethyl-amine] |
| 1000 to 10000 | Fc1ccccc1-c1cc(-c2cncc(-c3cnc4ccccc4c3)c2)ccn1 [Compound 39, 2′-(2-Fluoro-phenyl)-5-quinolin-3-yl-[3,4′]bipyridinyl] |
| < 1000 | CN1CCN(CCCn2cc(-c3cncc(-c4ccnc(-c5ccccc5F)c4)c3)cn2)CC1 [Compound 23, 2′-(2-Fluoro-phenyl)-5-{1-[3-(4-methyl-piperazin-1-yl)-propyl]-1H-pyrazol-4-yl}-[3,4′]bipyridinyl] |
| < 1000 | CN(C)CCCn1cc(-c2cncc(-c3ccnc(-c4ccccc4F)c3)c2)cn1 [Compound 29, (3-{4-[2′-(2-Fluoro-phenyl)-[3,4′]bipyridinyl-5-yl]-pyrazol-1-yl}-propyl)-dimethyl-amine] |
| < 1000 | CN1CCC(n2cc(-c3cncc(-c4ccnc(-c5ccccc5F)c4)c3)cn2)CC1 [Compound 24, 2′-(2-Fluoro-phenyl)-5-[1-(1-methyl-piperidin-4-yl)-1H-pyrazol-4-yl]-[3,4′]bipyridinyl] |
